Activity calls are given as the source filed them.
Key:
[1] = target: Benomyl/methotrexate resistance protein (Candida albicans, UniProt P28873); assay: Candida albicans Mdr1 pump inhibition curves – singleplex, Cherry Pick1 hits, dose response (AID 588608); assay type: functional
[2] = target: Multidrug resistance protein CDR1 (Candida albicans, UniProt P43071); assay: inhibition of Nile Red efflux via Candida CDR1 – S. cerevisiae AD1-8u, singleplex, Cherry Pick1 hits, dose response (AID 588606); assay type: functional
[3] = target: Multidrug resistance protein CDR2 (Candida albicans (strain SC5314 / ATCC MYA-2876) (Yeast), UniProt P78595); assay: inhibition of Nile Red efflux via Candida CDR2 – S. cerevisiae AD1-8u, singleplex, Cherry Pick1 hits, dose response (AID 588604); assay type: functional
[4] = target: T1, Apoptotic protease-activating factor 1 (Homo sapiens, UniProt O14727); assay: SAR analysis of small molecule Activators of Apaf-1 in a Fluorescent assay.; assay type: functional; conditions: read-out: EC50_Mean;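 note: caspase-3 cleavage of fluorogenic Rh110 DEVD substrate downstream of apoptosome activation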
T1 sequence (O14727 whole entry): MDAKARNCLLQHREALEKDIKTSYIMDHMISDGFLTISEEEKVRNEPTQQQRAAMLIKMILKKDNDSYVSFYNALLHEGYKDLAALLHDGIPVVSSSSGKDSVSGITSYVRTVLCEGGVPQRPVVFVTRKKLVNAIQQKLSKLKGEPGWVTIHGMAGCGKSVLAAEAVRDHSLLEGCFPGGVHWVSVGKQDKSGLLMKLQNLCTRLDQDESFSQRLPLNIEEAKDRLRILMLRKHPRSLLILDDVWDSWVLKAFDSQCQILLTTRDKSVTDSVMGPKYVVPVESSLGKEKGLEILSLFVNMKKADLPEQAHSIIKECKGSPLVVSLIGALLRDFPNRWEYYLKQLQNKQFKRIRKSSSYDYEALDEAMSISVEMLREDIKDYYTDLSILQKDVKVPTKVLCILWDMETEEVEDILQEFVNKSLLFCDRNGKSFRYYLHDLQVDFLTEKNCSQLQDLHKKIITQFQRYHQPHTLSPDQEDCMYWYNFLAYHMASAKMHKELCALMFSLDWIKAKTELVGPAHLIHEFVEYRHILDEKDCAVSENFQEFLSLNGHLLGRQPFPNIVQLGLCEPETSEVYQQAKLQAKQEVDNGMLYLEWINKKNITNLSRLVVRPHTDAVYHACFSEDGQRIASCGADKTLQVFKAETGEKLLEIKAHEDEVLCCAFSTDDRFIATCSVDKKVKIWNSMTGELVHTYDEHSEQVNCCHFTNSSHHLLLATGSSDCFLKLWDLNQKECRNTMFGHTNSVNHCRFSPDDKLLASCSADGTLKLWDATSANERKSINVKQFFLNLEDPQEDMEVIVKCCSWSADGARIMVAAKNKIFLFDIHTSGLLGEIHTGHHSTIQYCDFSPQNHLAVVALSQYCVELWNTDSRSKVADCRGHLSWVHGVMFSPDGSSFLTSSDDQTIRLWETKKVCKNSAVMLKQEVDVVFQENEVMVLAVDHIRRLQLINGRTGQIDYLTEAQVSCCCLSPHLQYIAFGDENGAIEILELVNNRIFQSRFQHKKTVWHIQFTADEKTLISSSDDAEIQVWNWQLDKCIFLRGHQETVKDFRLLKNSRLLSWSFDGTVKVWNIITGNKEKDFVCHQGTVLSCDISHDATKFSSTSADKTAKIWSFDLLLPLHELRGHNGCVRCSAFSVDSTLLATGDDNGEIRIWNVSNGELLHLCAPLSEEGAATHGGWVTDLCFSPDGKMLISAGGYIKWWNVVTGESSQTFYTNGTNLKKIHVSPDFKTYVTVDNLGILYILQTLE

Interleukin-8 [5] = target: T2, Interleukin-8 (Homo sapiens, UniProt P10145); assay: Dose Response confirmation of uHTS small molecule hits for cystic fibrosis induced NFkb Inhibitors in a TNFa-induced IL8 counterscreen.; assay type: functional; conditions: read-out: IC50_Mean
Interleukin-8 [6] = target: T2, Interleukin-8; assay: Dose Response confirmation of uHTS small molecule hits for cystic fibrosis induced NFkb Inhibitors in a PAF-induced IL8 counterscreen.; assay type: functional; conditions: read-out: IC50_Mean
[7] = target: T3, ATP-dependent translocase ABCB1 (Homo sapiens, UniProt P08183); assay: inhibition of BCRP-mediated JC-1 efflux – Ig-MXP3 cells, flow cytometry, set 2, dose response (AID 504566); assay type: functional; conditions: read-out: EC50_MICROM_;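 note: flow cytometry median green fluorescence of retained JC-1 dye; potency of efflux pump inhibition measured as rising substrate retention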
[8] = target: T3, ATP-dependent translocase ABCB1; assay: P-gp JC-1 efflux blockade concentration-response – Jurkat-DNR cells, flow cytometry, set 2, dose response (AID 504569); assay type: functional; conditions: read-out: EC50_MICROM_;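 note: potency of pump inhibitors that raise cellular JC-1 green fluorescence up to the nicardipine level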
[9] = target: Ras and Rab interactor 1/Tyrosine-protein kinase ABL1 (Homo sapiens, UniProt P00519+Q13671); assay type: functional;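 note: biochemical TR-FRET dose-response test measuring inhibition of binding between Rin1 and Abl proteins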
[10] = target: T4, Mitochondrial peptide methionine sulfoxide reductase (Bos taurus, UniProt P54149); assay: Absorbance-based biochemical high throughput dose response assay for activators of Methionine sulfoxide reductase A (MsrA).; assay type: functional
[11] = target: Photoreceptor-specific nuclear receptor (Homo sapiens, UniProt Q9Y5X4); assay type: functional, cell-based;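 note: CHO-S cells with Gal4-NCOR and VP16-NR2E3 two-hybrid luciferase reporter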
Paired box protein Pax-8 = Paired box protein Pax-8 (Homo sapiens, UniProt Q06710); assay: PAX8 transcriptional activity inhibition in RMG-I – RMG-I cells, luciferase, cherry-pick, dose response (AID 687027); assay type: functional, cell-based;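 note: luciferase reporter driven by Pax8 target thyroperoxidase promoter measured by SteadyGlo luminescence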
[12] = target: T5, Histone-lysine N-methyltransferase NSD2 (Homo sapiens, UniProt O96028); assay type: biochemical
T5 sequence (O96028 whole entry): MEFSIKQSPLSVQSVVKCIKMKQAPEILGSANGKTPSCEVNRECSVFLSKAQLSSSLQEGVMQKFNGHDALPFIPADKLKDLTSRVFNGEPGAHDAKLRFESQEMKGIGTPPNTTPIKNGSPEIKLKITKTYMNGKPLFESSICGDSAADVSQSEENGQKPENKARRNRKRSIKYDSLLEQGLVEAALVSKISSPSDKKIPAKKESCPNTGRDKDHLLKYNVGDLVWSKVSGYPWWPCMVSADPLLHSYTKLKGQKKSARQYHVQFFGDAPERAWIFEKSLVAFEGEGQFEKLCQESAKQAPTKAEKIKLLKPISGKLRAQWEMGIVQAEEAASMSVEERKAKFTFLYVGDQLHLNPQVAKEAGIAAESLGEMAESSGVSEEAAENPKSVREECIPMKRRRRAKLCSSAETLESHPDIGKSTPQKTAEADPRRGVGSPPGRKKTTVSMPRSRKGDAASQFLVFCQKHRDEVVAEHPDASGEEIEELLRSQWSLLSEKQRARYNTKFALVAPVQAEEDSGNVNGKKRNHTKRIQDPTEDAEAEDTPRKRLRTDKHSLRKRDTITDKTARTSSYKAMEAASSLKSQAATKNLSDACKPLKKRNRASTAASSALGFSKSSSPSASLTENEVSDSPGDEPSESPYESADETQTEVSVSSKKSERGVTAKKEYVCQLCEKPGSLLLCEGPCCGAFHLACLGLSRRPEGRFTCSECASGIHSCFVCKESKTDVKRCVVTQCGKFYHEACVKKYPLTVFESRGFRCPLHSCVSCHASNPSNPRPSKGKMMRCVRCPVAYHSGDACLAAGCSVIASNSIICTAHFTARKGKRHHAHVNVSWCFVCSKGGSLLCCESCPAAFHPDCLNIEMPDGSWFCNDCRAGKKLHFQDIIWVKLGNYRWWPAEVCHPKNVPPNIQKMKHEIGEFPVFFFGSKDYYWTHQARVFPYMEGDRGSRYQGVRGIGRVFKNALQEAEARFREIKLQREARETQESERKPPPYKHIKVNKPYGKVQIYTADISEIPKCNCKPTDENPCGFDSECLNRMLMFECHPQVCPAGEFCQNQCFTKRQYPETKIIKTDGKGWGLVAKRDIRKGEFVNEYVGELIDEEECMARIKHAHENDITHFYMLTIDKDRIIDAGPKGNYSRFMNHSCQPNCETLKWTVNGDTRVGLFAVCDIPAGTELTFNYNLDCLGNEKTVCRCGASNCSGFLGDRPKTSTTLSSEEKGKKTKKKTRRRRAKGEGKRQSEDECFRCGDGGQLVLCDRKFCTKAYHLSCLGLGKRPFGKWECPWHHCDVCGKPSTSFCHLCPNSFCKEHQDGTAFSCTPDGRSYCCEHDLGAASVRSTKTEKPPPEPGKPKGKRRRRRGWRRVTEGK

[13] = target: T6, Tyrosyl-DNA phosphodiesterase 2 (Homo sapiens, UniProt O95551); assay: potency against TDP2 phosphodiesterase activity – biochemical, epi absorbance, IC50, dose response (AID 743297)
T6 sequence (O95551 whole entry): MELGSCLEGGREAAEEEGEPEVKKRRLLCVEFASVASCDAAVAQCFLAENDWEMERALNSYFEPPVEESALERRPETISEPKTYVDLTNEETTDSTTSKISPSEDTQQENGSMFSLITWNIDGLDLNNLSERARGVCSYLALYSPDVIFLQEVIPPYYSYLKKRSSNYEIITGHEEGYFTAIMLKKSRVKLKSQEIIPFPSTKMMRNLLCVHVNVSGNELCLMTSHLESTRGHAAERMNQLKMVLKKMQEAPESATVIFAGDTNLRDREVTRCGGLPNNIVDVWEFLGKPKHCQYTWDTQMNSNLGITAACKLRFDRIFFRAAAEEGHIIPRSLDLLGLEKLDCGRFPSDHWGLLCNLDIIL

[14] = target: 1-phosphatidylinositol 4,5-bisphosphate phosphodiesterase gamma-1 (Homo sapiens, UniProt P19174); assay: Counterscreen for inhibitors of phospholipase C isozymes (PLC-B3): Fluorescence-based biochemical high throughput dose response assay to identify inhibitors of phospholipase C isozymes (PLC-gamma1).
[15] = general cell-killing toxicity readout – plate reader, dry powder samples, cytotoxicity control for PAX8 inhibitor project, dose response (AID 743021); assay type: functional, cell-based
[16] = target: 1-phosphatidylinositol 4,5-bisphosphate phosphodiesterase beta-3 (Homo sapiens, UniProt Q01970); assay: Fluorescence-based biochemical high throughput dose response assay to identify inhibitors of phospholipase C isozymes (PLC-B3).
[17] = target: RNA-editing ligase 1, mitochondrial (Trypanosoma brucei brucei, UniProt P86926); assay: inhibition of trypanosome RNA editing ligase – biochemical, fluorescence, Trypanosoma brucei, dose response (AID 1117295); assay type: functional
[18] = inhibition of ARNT PAS-B/TACC3 complex formation – biochemical, AlphaScreen, cherry-picked samples, confirmation (AID 651703); assay type: functional, Homo sapiens;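 note: His-tagged ARNT PAS-B domain paired with GST-TACC3 E629A dimer coactivator fragment; potency of inhibitors that break up the complex and lower AlphaScreen signal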
[19] = target: T4, Mitochondrial peptide methionine sulfoxide reductase; assay type: functional
[20] = luciferase reporter signal suppression in cells – H4 neuroglioma cells, luminescence, dose response (AID 1990); assay type: functional, cell-based
[21] = Luminescence Cell-Based Dose Response HTS to Identify Inhibitors of 5'UTR Stem-Loop Driven Prion Protein mRNA Translation in H4 Neuroglioblastoma Cells. [Related pubchem assays: 1827 (Project Summary), 1813 (Primary HTS)]; assay type: functional
[22] = alpha-synuclein stem-loop luciferase translation blockers – H4 neuroglioma cells, luminescence, confirmation (AID 1988); assay type: functional, cell-based
[23] = Trypanosoma cruzi growth suppression in host cells – NIH3T3 host cells, beta-gal luminescence, confirmation (AID 2044); assay type: functional, cell-based;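 note: intracellular parasites grown in NIH/3T3 mouse fibroblasts as host cells; luminescent beta-galactosidase reporter signal from transgenic T. cruzi replicating inside host cells; inhibitors lower the luminescence signal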
[24] = NIH3T3 cell viability loss – ATP luminescence, mouse fibroblasts, counter-screen, dose response (AID 2010); assay type: functional, cell-based;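 note: cells exposed to compound for about 90 hours before reading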
[25] = target: Heat shock protein HSP 90-alpha (Homo sapiens, UniProt P07900); assay type: functional, organism-based
[26] = NIH3T3 cell viability loss, ATP content – CellTiter-Glo luminescence, cherry-pick, set 2, cytotoxicity control for HSP40 inhibitor project, dose response (AID 624265); assay type: functional

T4 sequence (P54149 whole entry, the tested form may be a part): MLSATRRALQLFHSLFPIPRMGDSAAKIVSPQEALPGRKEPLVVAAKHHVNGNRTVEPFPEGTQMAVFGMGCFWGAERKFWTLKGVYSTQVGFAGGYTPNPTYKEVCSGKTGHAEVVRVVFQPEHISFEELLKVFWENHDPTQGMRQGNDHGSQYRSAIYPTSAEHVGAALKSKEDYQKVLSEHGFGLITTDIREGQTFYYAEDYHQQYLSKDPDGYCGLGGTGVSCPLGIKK
T2 sequence (P10145 whole entry): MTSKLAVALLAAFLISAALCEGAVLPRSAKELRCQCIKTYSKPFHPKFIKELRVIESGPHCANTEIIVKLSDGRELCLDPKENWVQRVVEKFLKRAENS
T3 sequence (P08183 whole entry): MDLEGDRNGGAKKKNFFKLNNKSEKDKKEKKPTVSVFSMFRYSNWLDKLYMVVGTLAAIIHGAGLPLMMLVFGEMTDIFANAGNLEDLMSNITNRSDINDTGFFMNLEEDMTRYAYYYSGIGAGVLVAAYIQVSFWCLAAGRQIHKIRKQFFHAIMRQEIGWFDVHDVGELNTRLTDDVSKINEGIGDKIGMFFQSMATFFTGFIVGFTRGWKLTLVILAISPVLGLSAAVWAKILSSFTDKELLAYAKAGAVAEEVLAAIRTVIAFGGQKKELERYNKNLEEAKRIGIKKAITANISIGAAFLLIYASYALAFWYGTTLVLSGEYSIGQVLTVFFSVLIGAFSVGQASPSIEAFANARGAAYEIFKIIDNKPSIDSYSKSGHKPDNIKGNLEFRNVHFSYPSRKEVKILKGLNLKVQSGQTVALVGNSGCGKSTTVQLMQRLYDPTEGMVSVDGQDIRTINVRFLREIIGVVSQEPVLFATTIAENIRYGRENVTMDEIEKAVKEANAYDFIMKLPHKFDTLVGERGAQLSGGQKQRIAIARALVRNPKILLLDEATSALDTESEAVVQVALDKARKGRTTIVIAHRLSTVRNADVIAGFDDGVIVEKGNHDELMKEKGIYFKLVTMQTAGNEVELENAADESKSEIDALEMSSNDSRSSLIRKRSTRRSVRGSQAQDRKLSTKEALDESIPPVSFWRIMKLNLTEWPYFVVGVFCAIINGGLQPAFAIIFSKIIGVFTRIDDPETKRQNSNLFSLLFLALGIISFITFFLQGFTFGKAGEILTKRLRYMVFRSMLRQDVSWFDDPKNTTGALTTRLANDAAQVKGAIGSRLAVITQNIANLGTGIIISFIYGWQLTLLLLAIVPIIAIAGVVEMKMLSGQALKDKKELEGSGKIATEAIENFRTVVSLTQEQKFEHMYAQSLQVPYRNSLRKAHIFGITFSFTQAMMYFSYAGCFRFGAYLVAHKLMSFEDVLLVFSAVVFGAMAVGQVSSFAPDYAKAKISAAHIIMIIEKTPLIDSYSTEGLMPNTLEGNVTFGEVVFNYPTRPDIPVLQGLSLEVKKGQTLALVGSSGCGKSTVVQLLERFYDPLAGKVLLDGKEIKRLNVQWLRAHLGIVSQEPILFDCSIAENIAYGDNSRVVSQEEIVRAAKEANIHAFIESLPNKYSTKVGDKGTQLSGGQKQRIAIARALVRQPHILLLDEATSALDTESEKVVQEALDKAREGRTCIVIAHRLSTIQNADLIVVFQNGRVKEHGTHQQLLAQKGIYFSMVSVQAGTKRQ
Sequence of Photoreceptor-specific nuclear receptor (Q9Y5X4 whole entry, the tested form may be a part): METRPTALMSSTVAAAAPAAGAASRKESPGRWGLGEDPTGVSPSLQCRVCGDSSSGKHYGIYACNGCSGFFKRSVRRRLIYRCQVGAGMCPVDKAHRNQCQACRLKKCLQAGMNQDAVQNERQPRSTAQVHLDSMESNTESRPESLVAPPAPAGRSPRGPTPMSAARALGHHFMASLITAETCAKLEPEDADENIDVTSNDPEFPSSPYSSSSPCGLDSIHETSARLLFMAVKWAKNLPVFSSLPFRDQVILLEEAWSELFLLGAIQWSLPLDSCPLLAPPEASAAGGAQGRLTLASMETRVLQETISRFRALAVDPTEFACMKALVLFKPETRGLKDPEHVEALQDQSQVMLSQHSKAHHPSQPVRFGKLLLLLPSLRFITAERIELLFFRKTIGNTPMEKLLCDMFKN
Sequence of Multidrug resistance protein CDR1 (P43071 whole entry, looked up): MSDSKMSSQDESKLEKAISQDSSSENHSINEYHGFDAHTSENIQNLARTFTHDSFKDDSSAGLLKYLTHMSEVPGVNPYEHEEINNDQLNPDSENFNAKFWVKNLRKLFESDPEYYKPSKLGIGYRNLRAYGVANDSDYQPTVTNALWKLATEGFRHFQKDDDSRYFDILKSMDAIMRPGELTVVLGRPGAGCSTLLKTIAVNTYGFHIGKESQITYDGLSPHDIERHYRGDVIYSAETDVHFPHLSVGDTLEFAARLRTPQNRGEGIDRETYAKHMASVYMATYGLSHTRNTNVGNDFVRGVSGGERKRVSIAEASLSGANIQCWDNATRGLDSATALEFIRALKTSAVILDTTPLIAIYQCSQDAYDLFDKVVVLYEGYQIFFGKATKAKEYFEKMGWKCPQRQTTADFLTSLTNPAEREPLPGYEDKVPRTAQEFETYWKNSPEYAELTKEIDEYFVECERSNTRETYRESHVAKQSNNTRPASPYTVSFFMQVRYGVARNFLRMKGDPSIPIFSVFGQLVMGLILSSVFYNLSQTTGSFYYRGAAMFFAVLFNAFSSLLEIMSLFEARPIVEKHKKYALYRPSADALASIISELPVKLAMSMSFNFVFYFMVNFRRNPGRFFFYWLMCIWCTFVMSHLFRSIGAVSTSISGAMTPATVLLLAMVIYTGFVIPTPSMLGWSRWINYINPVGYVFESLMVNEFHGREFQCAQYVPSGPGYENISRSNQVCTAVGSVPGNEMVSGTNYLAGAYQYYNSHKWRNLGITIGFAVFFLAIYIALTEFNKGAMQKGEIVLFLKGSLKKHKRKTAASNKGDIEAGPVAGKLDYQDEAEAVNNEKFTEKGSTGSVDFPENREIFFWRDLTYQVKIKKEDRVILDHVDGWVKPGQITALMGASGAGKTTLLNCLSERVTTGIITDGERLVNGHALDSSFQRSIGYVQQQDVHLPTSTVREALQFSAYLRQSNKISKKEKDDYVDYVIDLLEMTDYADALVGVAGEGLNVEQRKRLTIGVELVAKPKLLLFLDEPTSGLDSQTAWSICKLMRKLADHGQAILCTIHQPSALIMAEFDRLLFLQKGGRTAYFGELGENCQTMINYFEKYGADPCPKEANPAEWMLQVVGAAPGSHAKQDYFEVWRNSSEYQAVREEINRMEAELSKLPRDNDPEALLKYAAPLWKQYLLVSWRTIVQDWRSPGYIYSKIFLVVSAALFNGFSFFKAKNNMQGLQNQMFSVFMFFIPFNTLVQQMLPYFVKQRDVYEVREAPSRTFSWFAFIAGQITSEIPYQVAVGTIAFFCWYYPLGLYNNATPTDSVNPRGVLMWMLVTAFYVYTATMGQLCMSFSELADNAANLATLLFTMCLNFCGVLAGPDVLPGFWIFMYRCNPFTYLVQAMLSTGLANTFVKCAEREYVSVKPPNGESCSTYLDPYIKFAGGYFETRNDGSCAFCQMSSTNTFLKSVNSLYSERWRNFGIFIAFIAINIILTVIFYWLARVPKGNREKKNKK
Sequence of Multidrug resistance protein CDR2 (P78595 whole entry): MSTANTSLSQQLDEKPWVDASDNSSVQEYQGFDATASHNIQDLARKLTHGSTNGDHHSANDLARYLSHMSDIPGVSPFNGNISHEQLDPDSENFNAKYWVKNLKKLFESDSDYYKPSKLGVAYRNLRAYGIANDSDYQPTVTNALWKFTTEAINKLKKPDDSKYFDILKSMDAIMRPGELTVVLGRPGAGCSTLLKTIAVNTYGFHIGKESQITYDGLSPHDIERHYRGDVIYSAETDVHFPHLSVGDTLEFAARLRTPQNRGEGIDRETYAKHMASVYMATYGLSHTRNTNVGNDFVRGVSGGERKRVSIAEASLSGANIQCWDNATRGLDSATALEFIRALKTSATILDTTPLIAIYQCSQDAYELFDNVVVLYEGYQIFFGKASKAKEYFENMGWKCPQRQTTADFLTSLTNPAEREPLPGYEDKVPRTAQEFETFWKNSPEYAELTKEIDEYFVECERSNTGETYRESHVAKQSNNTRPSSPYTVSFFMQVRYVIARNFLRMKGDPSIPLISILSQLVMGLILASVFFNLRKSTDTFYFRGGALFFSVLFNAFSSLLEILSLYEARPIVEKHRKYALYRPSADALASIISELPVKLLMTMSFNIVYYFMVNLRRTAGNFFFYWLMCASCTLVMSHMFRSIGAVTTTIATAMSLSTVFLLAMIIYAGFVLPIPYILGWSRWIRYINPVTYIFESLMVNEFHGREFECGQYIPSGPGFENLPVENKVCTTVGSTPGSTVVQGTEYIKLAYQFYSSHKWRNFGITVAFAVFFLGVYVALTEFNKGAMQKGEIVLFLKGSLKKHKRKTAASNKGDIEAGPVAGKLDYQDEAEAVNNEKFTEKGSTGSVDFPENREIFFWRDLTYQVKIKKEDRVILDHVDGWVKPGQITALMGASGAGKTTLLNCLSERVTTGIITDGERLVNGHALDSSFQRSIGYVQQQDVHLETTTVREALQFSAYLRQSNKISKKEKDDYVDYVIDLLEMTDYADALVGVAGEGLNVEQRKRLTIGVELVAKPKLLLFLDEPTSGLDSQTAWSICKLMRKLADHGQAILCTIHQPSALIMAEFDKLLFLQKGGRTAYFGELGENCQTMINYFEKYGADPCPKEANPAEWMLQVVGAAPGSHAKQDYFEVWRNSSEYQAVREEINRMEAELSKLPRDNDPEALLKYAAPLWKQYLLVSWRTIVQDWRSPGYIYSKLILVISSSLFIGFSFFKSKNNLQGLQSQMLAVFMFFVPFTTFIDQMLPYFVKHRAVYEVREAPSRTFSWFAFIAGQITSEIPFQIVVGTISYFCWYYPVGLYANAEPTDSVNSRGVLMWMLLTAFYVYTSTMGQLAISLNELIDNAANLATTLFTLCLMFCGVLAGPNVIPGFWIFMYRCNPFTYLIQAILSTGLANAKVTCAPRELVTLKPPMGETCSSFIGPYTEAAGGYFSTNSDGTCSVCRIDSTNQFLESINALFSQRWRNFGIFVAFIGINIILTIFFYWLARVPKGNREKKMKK

In the case of `COc1cc(OC)cc(-c2sc3ccc(OC)cc3c2-c2ccc(OCCN3CCCCC3)cc2)c1`, the EC50 [1] is reported as 10.6 µM (active), the EC50 [2] is reported as 10.7 µM (active) and the EC50 [3] is reported as 7.51 µM (active).

With `COc1ccc(C(=O)NC(CCc2ccccc2)CC(=O)O)cc1` (configuration not stated) the EC50 [4] was > 100 µM (inactive).

In the case of `C=Cc1ccc(CC2(C)C(=O)Nc3ccc(-c4cccnc4)cc32)cc1` (configuration not stated), the IC50 (Interleukin-8 [5]) is reported as 45.1 µM (inactive) and the IC50 (Interleukin-8 [6]) is reported as 25.5 µM (inactive).

For `Cc1ccc(-c2cc3nc(-c4ccccc4)cc(N4CCN(C(=O)c5ccco5)CC4)n3n2)cc1`, the EC50 [7] was 0.95 µM (active) and the EC50 [8] was 2.41 µM (active).

For `O=C1C(=O)c2cccnc2-c2ncccc21`, the IC50 [9] was 6.59 µM (active), the EC50 [10] was 3.64 µM (active) and the IC50 [11] was 12.1 µM (inactive). For the same compound, the AC50 (Paired box protein Pax-8) was 3.32 µM (active), the AC50 [12] was 0.981 µM (active) and the IC50 [13] was 12.5 µM (inactive). The IC50 [14] was 11.2 µM (inactive), the AC50 [15] was 8.53 µM (active) and the IC50 [16] was > 123 µM (inactive). For the same compound, the IC50 [17] was 3.51 µM (active).

With `CCOc1ccc(Nc2nc(N)nc(CN(C)C3CCCCC3)n2)cc1` the AC50 [18] was 71.6 µM (active).

In the case of `O=C(O)CC1SC(N/N=C/C=C/c2ccccc2)=NC1=O` (configuration not stated), the IC50 [19] is reported as 97.5 µM (inactive).

With `CCC(C)n1ncn(-c2ccc(N3CCN(c4ccc(OCC5COC(Cn6cncn6)(c6ccc(Cl)cc6Cl)O5)cc4)CC3)cc2)c1=O` (configuration not stated) [ITRACONAZOLE] the EC50 [20] was > 120 µM (not active), the EC50 [21] was 50 µM (active) and the EC50 [22] was > 120 µM (not active). The EC50 [23] was 0.1 µM (active), the EC50 [24] was > 60 µM (not active) and the AC50 [25] was < 0.195 µM (active). It also gave an AbsAC35_uM [26] of 105.6 µM.

— ChEMBL document CHEMBL1201862, “PubChem BioAssay data set” (2004)
